Source: ChEMBL document CHEMBL5725743, “Benzamide imidazopyrazine Btk inhibitors” (2018)
pIC50: −log10 of the molar value.

Target: Tyrosine-protein kinase BTK (Homo sapiens, UniProt Q06187)
Experiment: Btk Enzyme Activity Assay: BTK enzymatic activity was determined with the LANCE (Lanthanide Chelate Excite) TR-FRET (Time-resolved fluorescence resonance energy transfer) assay. […] Phosphorylation reactions were allowed to proceed for 120 minutes. […] After 60 minutes incubation with detection reagents, reaction plates were read on a PerkinElmer EnVision plate reader using standard TR-FRET protocol. […] IC50 values were determined by 4 parameter robust fit of TR-FRET ratio values vs. (Log10)) compound concentrations.

Sequence of Tyrosine-protein kinase BTK (Q06187 whole entry): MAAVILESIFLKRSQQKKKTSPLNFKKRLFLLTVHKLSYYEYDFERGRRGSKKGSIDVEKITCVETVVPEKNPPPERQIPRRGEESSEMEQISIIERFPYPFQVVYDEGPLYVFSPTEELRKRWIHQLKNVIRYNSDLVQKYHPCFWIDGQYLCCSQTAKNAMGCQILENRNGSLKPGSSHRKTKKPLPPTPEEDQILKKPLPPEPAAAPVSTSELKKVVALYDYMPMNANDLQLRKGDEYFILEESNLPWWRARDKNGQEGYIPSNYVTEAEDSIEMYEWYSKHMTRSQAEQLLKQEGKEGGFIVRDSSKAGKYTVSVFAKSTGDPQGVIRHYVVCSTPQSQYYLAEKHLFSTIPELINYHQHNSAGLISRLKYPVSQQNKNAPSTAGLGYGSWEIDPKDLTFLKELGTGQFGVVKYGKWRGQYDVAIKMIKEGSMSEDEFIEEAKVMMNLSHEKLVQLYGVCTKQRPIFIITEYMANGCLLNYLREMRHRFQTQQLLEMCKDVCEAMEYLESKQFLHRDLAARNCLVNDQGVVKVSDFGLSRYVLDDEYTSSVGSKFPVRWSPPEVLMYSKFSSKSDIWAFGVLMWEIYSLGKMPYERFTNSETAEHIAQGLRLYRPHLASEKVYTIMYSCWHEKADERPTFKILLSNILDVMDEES

pIC50: 9.80
Structure (SMILES): Nc1nccn2c([C@@H]3CC[C@@H](CC(=O)O)C3)nc(-c3ccc(C(=O)Nc4cc(C(F)(F)F)ccn4)cc3)c12
